Assay results published in patent US20110319379A1, “Substituted Indazole Amides And Their Use As Glucokinase Activators” (priority 2009, published 2011).

Molecular target: T1, recombinant human glucokinase (Homo sapiens, UniProt P35557)
T1 construct: Full-length glucokinase (beta cell isoform) was His-tagged at the N-terminus and purified by a Ni column followed by size exclusion chromatography as described above; His tag; made in house; host or cells: E. coli BL21(DE3), vector pBCGK
T1 sequence (P35557 1-465): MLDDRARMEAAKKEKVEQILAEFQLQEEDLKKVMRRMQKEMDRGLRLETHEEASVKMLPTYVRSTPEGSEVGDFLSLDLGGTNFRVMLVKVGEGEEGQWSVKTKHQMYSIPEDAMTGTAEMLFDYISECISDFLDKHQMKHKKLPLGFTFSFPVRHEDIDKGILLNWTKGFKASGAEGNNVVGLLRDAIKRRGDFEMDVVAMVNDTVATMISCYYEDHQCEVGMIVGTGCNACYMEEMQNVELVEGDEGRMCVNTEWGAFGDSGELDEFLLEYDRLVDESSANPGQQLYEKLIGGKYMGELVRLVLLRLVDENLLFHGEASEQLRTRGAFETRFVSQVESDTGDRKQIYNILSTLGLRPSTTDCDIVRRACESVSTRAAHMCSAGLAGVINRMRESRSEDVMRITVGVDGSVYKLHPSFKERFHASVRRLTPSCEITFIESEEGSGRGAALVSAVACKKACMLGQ
Experiment: Assay 2: Evaluating Activator Potency in a Matrix Assay at Multiple Glucose Concentrations
Assay type: biochemical
Details: Assay 2 matrix assay; 16 glucose concentrations; intrinsic EC50 = concentration affording a 50% reduction in the enzyme's Km (for glucose); read-out: Glucokinase EC50
Description: Representative compounds of this invention were evaluated in biochemical assays (Assay 1 or Assay 2) to characterize their glucokinase activation properties.
The recombinant human glucokinase protein utilized in both assays was prepared and purified as described below.
BL21(DE3) cells (Invitrogen Corporation, Carlsbad, Calif.) containing pBCGK (C or N H is) vector were grown at 37° C. (in 2XYT) until the OD600 was between 0.6-1.0. Expression was induced by addition of isopropylthiogalactoside to a final concentration of 0.1-0.2 mM to the cells which were then incubated overnight at 23° C. The next day, cells were harvested via centrifugation at 5000 rpm for 15 minutes at 4° C. The cell pellet was stored at −80° C. for future purification.
Beta Cell Glucokinase His-Taq Purification Conditions: A Ni-NTA (Quigan, Germantown, Md.) column (15-50 mL) was used for separation. Two buffers were prepared, 1) a lysis/nickel equilibration and wash buffer and 2) a nickel elution buffer. The lysis/equilibration/wash buffer was prepared as such: 25 mM HEPES buffer at pH 7.5, 250 mM NaCl, 20 mM imidazole, and 14 mM β-mercaptoethanol as final concentrations. The elution buffer was prepared as such: 25 mM HEPES at pH 7.5, 250 mM NaCl, 400 mM imidazole, and 14 mM β-mercaptoethanol as final concentrations. The buffers were each filtered with a 0.22 μm filter prior to use. The cell pellet (1 L culture) was resuspended in 300 mL of the lysis/equilibration buffer. The cells were then lysed (3 times) with a Microfluidics Model 110Y microfluidizer (Microfluidics Corporation, Newton, Mass.). The slurry was centrifuged with a Beckman Coulter Model LE-80K ultracentrifuge (Beckman Coulter, Fullerton, Calif.) at 40,000 rpm for 45 minutes at 4° C. The supernatant was transferred to a chilled flask. A volume of 20 μl was saved for gel analysis. A Pharmacia AKTA (GMI, Inc., Ramsey, Minn.) purification system was used for separation. The prime lines were purged with lysis/equilibration buffer. The Ni-NTA column was equilibrated with 200 mL of the lysis/equilibration buffer at a flow rate of 5 mL/minute. The supernantant was loaded over the column at 4 mL/minute and the flow-through was collected in a flask. The unbound proteins were washed with lysis/equilibration buffer at a flow rate of 5 mL/minute until the ultraviolet reaches baseline. The protein was then eluted from the column with the imidazole elution buffer via imidazole gradient 20 mM to 400 mM over 320 mL. The column was then stripped of any additional protein with 80 mL of the elution buffer. The elution fractions were each 8 mL, for a total yield of 50 samples. Fractions were analyzed by sodium dodecyl sulfate polyacrylamide (SDS-PAGE) and the fractions containing protein of interest were pooled and concentrated to 10 mL using ultrafiltration cell with a 10,000 molecular weight cut-off (MWCO) Millipore membrane (Sigma-Aldrich, St. Louis, Mo.) under nitrogen gas (60 psi). Protein was further purified by size exclusion chromatography (SEC) using a […] (320 mL) (Amersham Pharmacia, Uppsala, Sweden). SEC was equilibrated with 450 mL sizing buffer containing 25 mM HEPES pH 7.0, 50 mM NaCl, and 5 mM dithiothreitol. Concentrated protein was then loaded over SEC and elution with 400 mL sizing buffer was performed overnight at 0.5 mL/minute. The elution fractions were 5 mL each. The fractions were analyzed by SDS-PAGE and protein containing fractions were pooled. Concentration was measured using Bradford Assay/BSA Standard. Purified protein was stored in small aliquots at −80° C.
Assay 2: Evaluating Activator Potency in a Matrix Assay at Multiple Glucose Concentrations
Utilizing an adaptation of this method, representative compounds of the current invention were evaluated at 22 different concentrations and 16 different glucose concentrations in a coupled enzyme assay system that detects glucokinase activity via depletion of β-NADH.

SMILES | EC50 [nM]
CC(C)n1cc2c(Oc3cnc(C(=O)N(C)C)cn3)cc(C(=O)Nc3ccn(C)n3)cc2n1 [Example 1BV, 4-(5-(dimethylcarbamoyl)pyrazin-2-yloxy)-2-isopropyl-N-(1-methyl-1H-pyrazol-3-yl)-2H-indazole-6-carboxamide] | 1590
Cn1cc2c(Oc3cnc(C(=O)N4CCCC4)cn3)cc(C(=O)Nc3cnn(C)n3)cc2n1 [Example 1BW, 2-methyl-N-(2-methyl-2H-1,2,3-triazol-4-yl)-4-(5-(pyrrolidine-1-carbonyl)pyrazin-2-yloxy)-2H-indazole-6-carboxamide] | 4640
CCn1cc2c(Oc3cnc(C(=O)N4CCC4)cn3)cc(C(=O)Nc3cnn(C)n3)cc2n1 [Example 1BX, 4-(5-(azetidine-1-carbonyl)pyrazin-2-yloxy)-2-ethyl-N-(2-methyl-2H-1,2,3-triazol-4-yl)-2H-indazole-6-carboxamide] | 15100
CC(C)n1cc2c(Oc3cnc(C(=O)N4CCC4)cn3)cc(C(=O)Nc3cnn(C)n3)cc2n1 [Example 1BY, 4-(5-(azetidine-1-carbonyl)pyrazin-2-yloxy)-2-isopropyl-N-(2-methyl-2H-1,2,3-triazol-4-yl)-2H-indazole-6-carboxamide] | 17500
CCn1cc2c(Oc3cnc(C(=O)N(C)C)cn3)cc(C(=O)Nc3cnn(C)n3)cc2n1 [Example 1BZ, 4-(5-(dimethylcarbamoyl)pyrazin-2-yloxy)-2-ethyl-N-(2-methyl-2H-1,2,3-triazol-4-yl)-2H-indazole-6-carboxamide] | 25100
CCn1cc2c(Oc3ccc(S(C)(=O)=O)cc3)cc(C(=O)Nc3cnn(C)n3)cc2n1 [Example 1CA, 2-ethyl-4-[4-(methylsulfonyl)phenoxy]-N-(2-methyl-2H-1,2,3-triazol-4-yl)-2H-indazole-6-carboxamide] | 8520
CCn1cc2c(Oc3ccc(S(C)(=O)=O)cc3)cc(C(=O)Nc3ccn(CC(N)=O)n3)cc2n1 [Example 1CG, N-[1-(2-amino-2-oxoethyl)-1H-pyrazol-3-yl]-2-ethyl-4-[4-(methylsulfonyl)phenoxy]-2H-indazole-6-carboxamide] | 1490
CCn1cc2c(Oc3cnc(NC(C)=O)cn3)cc(C(=O)Nc3ccc(C)cn3)cc2n1 [Example 1CM, 4-(5-acetamidopyrazin-2-yloxy)-2-ethyl-N-(5-methylpyridin-2-yl)-2H-indazole-6-carboxamide] | 2450
CC(=O)N(C)c1cnc(Oc2cc(C(=O)Nc3ccc(C)cn3)cc3nn(C)cc23)cn1 [Example 1CN, 2-methyl-4-(5-(N-methylacetamido)pyrazin-2-yloxy)-N-(5-methylpyridin-2-yl)-2H-indazole-6-carboxamide] | 2320
CCn1cc2c(Oc3cnc(C(N)=O)cn3)cc(C(=O)Nc3ccc(C)cn3)cc2n1 [Example 1CO, 4-(5-carbamoylpyrazin-2-yloxy)-2-ethyl-N-(5-methylpyridin-2-yl)-2H-indazole-6-carboxamide] | 1880

The next compounds have a lower EC50 than those just listed; values first:

EC50 [nM] | SMILES
699 | CCn1cc2c(Oc3cnc(C(=O)N4CCC4)cn3)cc(C(=O)Nc3ccn(C)n3)cc2n1 [Example 1BQ, 4-(5-(azetidine-1-carbonyl)pyrazin-2-yloxy)-2-ethyl-N-(1-methyl-1H-pyrazol-3-yl)-2H-indazole-6-carboxamide]
790 | CCn1cc2c(Oc3cnc(C(=O)N4CCC4)cn3)cc(C(=O)Nc3cnc(C)cn3)cc2n1 [Example 1BR, 4-(5-(azetidine-1-carbonyl)pyrazin-2-yloxy)-2-ethyl-N-(5-methylpyrazin-2-yl)-2H-indazole-6-carboxamide]
798 | Cn1ccc(NC(=O)c2cc(Oc3cnc(C(=O)N4CCC4)cn3)c3cn(C)nc3c2)n1 [Example 1BS, 4-(5-(azetidine-1-carbonyl)pyrazin-2-yloxy)-2-methyl-N-(1-methyl-1H-pyrazol-3-yl)-2H-indazole-6-carboxamide]
979 | CC(C)n1cc2c(Oc3cnc(C(=O)N4CCC4)cn3)cc(C(=O)Nc3ccn(C)n3)cc2n1 [Example 1BT, 4-(5-(azetidine-1-carbonyl)pyrazin-2-yloxy)-2-isopropyl-N-(1-methyl-1H-pyrazol-3-yl)-2H-indazole-6-carboxamide]
1050 | CCn1cc2c(Oc3cnc(C(=O)N(C)C)cn3)cc(C(=O)Nc3ccn(C)n3)cc2n1 [Example 1BU, 4-(5-(dimethylcarbamoyl)pyrazin-2-yloxy)-2-ethyl-N-(1-methyl-1H-pyrazol-3-yl)-2H-indazole-6-carboxamide]
537 | CCn1cc2c(Oc3ccc(S(C)(=O)=O)cc3)cc(C(=O)Nc3cnc(C)cn3)cc2n1 [Example 1CB, 2-ethyl-N-(5-methylpyrazin-2-yl)-4-[4-(methylsulfonyl)phenoxy]-2H-indazole-6-carboxamide]
1210 | CCn1cc2c(Oc3ccc(S(C)(=O)=O)cc3)cc(C(=O)Nc3ccn(C)n3)cc2n1 [Example 1CC, 2-ethyl-N-(1-methyl-1H-pyrazol-3-yl)-4-[4-(methylsulfonyl)phenoxy]-2H-indazole-6-carboxamide]
261 | CCn1cc2c(Oc3ccc(S(C)(=O)=O)cc3)cc(C(=O)Nc3ccc(C(N)=O)cn3)cc2n1 [Example 1CD, N-(5-carbamoylpyridin-2-yl)-2-ethyl-4-[4-(methylsulfonyl)phenoxy]-2H-indazole-6-carboxamide]
558 | CCn1cc2c(Oc3ccc(S(C)(=O)=O)cc3)cc(C(=O)Nc3ccc(CC(N)=O)cn3)cc2n1 [Example 1CE, N-[5-(2-amino-2-oxoethyl)pyridin-2-yl]-2-ethyl-4[4-(methylsulfonyl)phenoxy]-2H-indazole-6-carboxamide]
714 | CCn1cc2c(Oc3ccc(S(C)(=O)=O)cc3)cc(C(=O)Nc3ccc(F)cn3)cc2n1 [Example 1CI, 2-ethyl-N-(5-fluoropyridin-2-yl)-4-[4-(methylsulfonyl)phenoxy]-2H-indazole-6-carboxamide]
282 | Cn1cc(NC(=O)c2cc(Oc3ccc(S(C)(=O)=O)cc3)c3cn(C)nc3c2)nn1 [Example 1CJ, 2-methyl-4-[4-(methylsulfonyl)phenoxy]-N-(1-methyl-1H-1,2,3-triazol-4-yl)-2H-indazole-6-carboxamide]
396 | CCn1cc2c(Oc3ccc(S(C)(=O)=O)cc3)cc(C(=O)Nc3ccc(C(=O)OC)cn3)cc2n1 [Example 1CK, methyl 6-[({2-ethyl-4-[4-(methylsulfonyl)phenoxy]-2H-indazol-6-yl}carbonyl)amino]nicotinate]
919 | CCn1cc2c(Oc3ccc(S(C)(=O)=O)cc3)cc(C(=O)Nc3ncns3)cc2n1 [Example 1CL, 2-ethyl-4-[4-(methylsulfonyl)phenoxy]-N-1,2,4-thiadiazol-5-yl-2H-indazole-6-carboxamide]
